Experimental data from publication PMC2650736 (Drug metabolism and disposition: the biological fate of …, 2008).
Where two headings read alike, the source gives them in different places.

Legend:
[1] = type: in vivo, human; settings: for Cmax: read-out: Cmax, Geometric Mean (CV %)
[2] = test system: Caco-2 cell monolayers; experiment: Midazolam absorptive permeability in Caco-2 cell monolayers; type: in vitro ADME, human
[3] = as above; type: in vitro ADME, human; settings: human, apical to basolateral, midazolam 3 μM
[4] = CBJ, single oral 5 mg midazolam
[5] = water, single oral 5 mg midazolam

For `Cc1ncc2n1-c1ccc(Cl)cc1C(c1ccccc1F)=NC2` [midazolam], the “CI/F, Geometric Mean (CV %)” value [1, 4] was 54 (30) L/h, the “t1/2 (terminal half-life), Geometric Mean (CV %)” value [1, 4] was 2.9 (25) h and the half-life ([1]; human, plasma, po, 5 mg) was 2.9 h. The “AUC0-∞, CBJ / Water Ratio [90% CI]” value ([1]; single oral 5 mg midazolam) was 1.33 [1.17−1.50], the “AUClast, CBJ / Water Ratio [90% CI]” value ([1]; single oral 5 mg midazolam) was 1.31 [1.18−1.46] and the “CI/F, CBJ / Water Ratio [90% CI]” value ([1]; single oral 5 mg midazolam) was 0.75 [0.67−0.85]. The “Cmax, CBJ / Water Ratio [90% CI]” value ([1]; single oral 5 mg midazolam) was 0.56 [0.49−0.64], the “t1/2, CBJ / Water Ratio [90% CI]” value ([1]; single oral 5 mg midazolam) was 1.01 [0.86−1.19] and the “CI/F, Geometric Mean (CV %)” value [1, 5] was 71 (33) L/h. For the same compound, the “total amount of midazolam recovered from apical and basolateral chambers” value ([2]; all time points, all conditions) was ≥ 80 % of the initial amount added to the apical chamber, the “amount of midazolam recovered from cell scrapings” value ([2]; end of 4-hour experiment, all four conditions) was 7−9 % of the initial amount added to the apical chamber and the Papp A→B at 3 μM ([3]; Caco-2, Papp, acidic pH (5.5)) was 21.9 ± 3.3 ×10⁻⁶ cm/s. The Papp A→B at 3 μM ([3]; Caco-2, pH 7.4, Papp, control (plain incubation medium, pH 7.4)) was 19.4 ± 1.8 ×10⁻⁶ cm/s and the Papp A→B at 3 μM ([3]; Caco-2, pH 7.4, Papp, high glucose (50 g/L, pH 7.4)) was 18.9 ± 2.8 ×10⁻⁶ cm/s.

In the case of `OCc1ncc2n1-c1ccc(Cl)cc1C(c1ccccc1F)=NC2` [1'-Hydroxymidazolam, 1'-hydroxymidazolam], the “tmax [median (range)]” value ([1]; CBJ (3 × 240 ml sweetened double-strength juice E), single oral 5 mg midazolam) is reported as 2.0 (1.0−6.0) h, the “AUC0-∞, Geometric Mean (CV %)” value [1, 4] is reported as 62 (25) nM●h and the “AUClast, Geometric Mean (CV %)” value [1, 4] is reported as 55 (23) nM●h. The “t1/2 (terminal half-life), Geometric Mean (CV %)” value [1, 4] was 3.3 (19) h, the Cmax [1, 4] was 10 nM and the Cmax [1, 5] was 33 nM. For the same compound, the “AUC0-∞, CBJ / Water Ratio [90% CI]” value ([1]; single oral 5 mg midazolam) was 0.84 [0.77−0.92], the “AUClast, CBJ / Water Ratio [90% CI]” value ([1]; single oral 5 mg midazolam) was 0.80 [0.73−0.88] and the “Cmax, CBJ / Water Ratio [90% CI]” value ([1]; single oral 5 mg midazolam) was 0.32 [0.27−0.38]. For the same compound, the “t1/2, CBJ / Water Ratio [90% CI]” value ([1]; single oral 5 mg midazolam) was 1.04 [0.89−1.20], the “AUC0-∞, Geometric Mean (CV %)” value [1, 5] was 74 (37) nM●h and the “AUClast, Geometric Mean (CV %)” value [1, 5] was 69 (35) nM●h. The “t1/2 (terminal half-life), Geometric Mean (CV %)” value [1, 5] was 3.2 (35) h and the “tmax [median (range)]” value ([1]; water, single oral 5 mg midazolam, 16 healthy volunteers) was 0.5 (0.25−1.5) h.
